Source: the supplement of paper PMC10307832

Legend:
Experiment in all cases: relative viability (nuclei count vs DMSO), 5 days (fraction); higher = more cells survive
FH535 + Olaparib = compound: CC1=C(C=CC(=C1)[N+](=O)[O-])NS(=O)(=O)C2=C(C=CC(=C2)Cl)Cl [FH535] + O=C(c1cc(Cc2n[nH]c(=O)c3ccccc23)ccc1F)N1CCN(C(=O)C2CC2)CC1 [Olaparib] (partner 8 µM)
How it was run: (§1)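 Values are medians from duplicate plates. Each reflects relative viability, defined as the nuclei count of treated wells over that of vehicle wells. Lung cancer cell lines in 1536-well plates were pin-tool dosed one day after seeding with one drug alone or with a fixed anchor-drug dose plus five library-drug doses (not always all listed) in √10 steps, then fixed, stained and imaged at 4× after 5 days.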

FH535 + Lapatinib = compound: CC1=C(C=CC(=C1)[N+](=O)[O-])NS(=O)(=O)C2=C(C=CC(=C2)Cl)Cl [FH535] + CS(=O)(=O)CCNCc1ccc(-c2ccc3ncnc(Nc4ccc(OCc5cccc(F)c5)c(Cl)c4)c3c2)o1 [Lapatinib] (partner 2 µM)
How it was run: as §1

FH535 + Phenformin = compound: CC1=C(C=CC(=C1)[N+](=O)[O-])NS(=O)(=O)C2=C(C=CC(=C2)Cl)Cl [FH535] + N=C(N)NC(=N)NCCc1ccccc1 [Phenformin] (partner 250 µM)
How it was run: as §1

FH535 + Pemetrexed = compound: CC1=C(C=CC(=C1)[N+](=O)[O-])NS(=O)(=O)C2=C(C=CC(=C2)Cl)Cl [FH535] + Nc1nc2[nH]cc(CCc3ccc(C(=O)N[C@@H](CCC(=O)O)C(=O)O)cc3)c2c(=O)[nH]1 [Pemetrexed] (partner 0.2 µM)
How it was run: as §1

FH535 + Palbociclib = compound: CC1=C(C=CC(=C1)[N+](=O)[O-])NS(=O)(=O)C2=C(C=CC(=C2)Cl)Cl [FH535] + CC(=O)c1c(C)c2cnc(Nc3ccc(N4CCNCC4)cn3)nc2n(C2CCCC2)c1=O [Palbociclib] (partner 0.5 µM)
How it was run: as §1

Cell Line	relative viability (FH535 + Olaparib; first compound 0.04 µM)	relative viability (FH535 + Olaparib; first compound 0.1265 µM)	relative viability (FH535 + Olaparib; first compound 0.4 µM)	relative viability (FH535 + Olaparib; first compound 1.265 µM)	relative viability (FH535 + Lapatinib; first compound 0.04 µM)	relative viability (FH535 + Lapatinib; first compound 0.1265 µM)	relative viability (FH535 + Lapatinib; first compound 0.4 µM)	relative viability (FH535 + Lapatinib; first compound 1.265 µM)	relative viability (FH535 + Phenformin; first compound 0.04 µM)	relative viability (FH535 + Phenformin; first compound 0.1265 µM)	relative viability (FH535 + Phenformin; first compound 0.4 µM)	relative viability (FH535 + Phenformin; first compound 1.265 µM)	relative viability (FH535 + Pemetrexed; first compound 0.04 µM)	relative viability (FH535 + Pemetrexed; first compound 0.1265 µM)	relative viability (FH535 + Pemetrexed; first compound 0.4 µM)	relative viability (FH535 + Pemetrexed; first compound 1.265 µM)	relative viability (FH535 + Palbociclib; first compound 0.04 µM)	relative viability (FH535 + Palbociclib; first compound 0.1265 µM)	relative viability (FH535 + Palbociclib; first compound 0.4 µM)	relative viability (FH535 + Palbociclib; first compound 1.265 µM)
HCC-78	0.695	0.764	0.885	0.673	0.694	0.321	0.701	0.697	0.626	0.783	0.63	0.592	0.837	0.868	0.904	0.871	0.487	0.512	0.458	0.425
HCC-366	0.302	0.333	0.373	0.332	1	1.11	0.999	0.913	0.607	0.522	0.48	0.41	0.169	0.134	0.174	0.159	0.418	0.412	0.37	0.296
HCC-827	0.627	0.676	0.574	0.359	0.202	0.195	0.213	0.163	0.407	0.387	0.383	0.313	0.237	0.246	0.216	0.263	0.501	0.479	0.489	0.332
HOP-62	0.278	0.36	0.4	0.453	0.886	0.87	1	1.01	0.682	0.668	0.552	0.401	0.322	0.267	0.345	0.35	0.481	0.462	0.456	0.393
IA-LM	0.768	0.732	0.712	0.503	0.796	0.778	0.66	0.588												
LC-2-ad	0.74	0.703	0.713	0.526	0.711	0.97	0.92	0.697	0.482	0.58	0.425	0.368	0.271	0.296	0.249	0.31	0.481	0.482	0.476	0.441
LCLC-97TM1	0.407	0.342	0.314	0.274		0.766	0.837	0.833	0.409	0.37	0.334	0.313	0.155	0.173	0.156	0.135	0.199	0.203	0.235	0.135
LCLC-103H	0.757	0.774	0.75	0.474					0.326	0.286	0.255	0.262	0.456	0.48	0.467	0.52	0.509	0.426	0.493	0.416
LK-2	0.579	0.615	0.942	0.735	0.982	0.854	0.91	0.775	0.35	0.521	0.495	0.211	0.271	0.288	0.278	0.307	0.624	0.578	0.553	0.593
LOU-NH91	0.876	0.905	0.793	0.421	0.726	0.667	0.6	0.408	0.554	0.471	0.424	0.392	0.377	0.428	0.429	0.457	0.458	0.536	0.548	0.497
LU99A	0.246	0.28	0.274	0.283	0.739	1.05	0.969	0.866	0.55	0.856	0.764	0.729	0.148	0.171	0.199	0.239	0.35	0.436	0.432	0.342
NCI-H441	0.516	0.501	0.459	0.439					0.316	0.829	0.709	0.512	0.232	0.254	0.231	0.257	0.212	0.197	0.176	0.174
NCI-H522	0.686	0.717	0.632	0.467					0.591	0.575	0.621	0.62	0.847	1.01	0.994	1.08	0.984	0.936	0.945	0.701
NCI-H596	0.725	0.815	0.733	0.598	1.06	1.03	0.985	0.94	0.794	0.623	0.614	0.69	0.499	0.507	0.454	0.507				
NCI-H727	0.746	0.675	0.527	0.549	0.85	0.628	0.727	0.665	0.56	0.509	0.363	0.305					0.663	0.634	0.693	0.63
NCI-H1563					0.737	0.959	0.898	0.864	0.665	0.669	0.644	0.563	0.786	0.679	0.752	0.625				
NCI-H1703	0.429	0.461	0.486	0.392	1.12	1.12	1.11	0.662												
NCI-H2342	0.471	0.487	0.434	0.363					0.559	0.602	0.611	0.437	0.772	0.748	0.812	0.634	0.524	0.533	0.567	0.581
SW 900	0.923	0.838	0.804	0.657					0.569	0.667	0.48	0.236	0.441	0.479	0.501	0.472	0.516	0.503	0.507	0.454
